Measured values from patent publication US11136301B2, “Broad spectrum antiviral compounds and uses thereof” (The Regents Of The University Of California, priority 2015, dated 2021).
“Also recorded” adds a separate entry of the source. Where two headings read alike, the source gives them in different places.

How the values were obtained:
[1] = tested on: wild-type HIV-1 (HIV-1LAI) in H9 cells (non-permissive); test: microbe, parasite or virus in culture; type: cell-based
HSP90 = test: ViTAP (Vif inhibitor Target Affinity Purification): streptavidin affinity purification of compound-bound proteins; type: binding
[2] = tested on: polyubiquitination of A3G and Vif; test: Ubiquitination assay in 293FT cells; type: cell-based; conditions: 293FT cells expressing HA-A3G and GFP-Vif, 10 μM, ALLN
Protocol: Cells were incubated with or without 10 μM of IMA82, IMD55, or IMD64 for 16 h, and then with or without 10 μM of the calpain inhibitor ALLN for 4 h. The cells were washed once with PBS and lysed. Samples of 200 μg protein were immunoprecipitated by the addition of rat anti-HA (Roche) or mouse anti-GFP (Wako) antibodies (7 μg) and 50 μl protein G DYNABEADS® (Invitrogen) and rotated at RT for 2 h. The beads were washed three times with PBS containing 0.05% Tween 20 and boiled in 5×SDS sample buffer. The denatured proteins were resolved and electroblotted onto PVDF membranes. The membranes were probed with rabbit anti-ubiquitin, rabbit anti-HA, or rabbit anti-GFP antibodies, as described above.

[3] = tested on: HSP90-A3G interaction (GST-Hsp90, recombinant human A3G); test: In vitro binding of purified GST-HSP90 and recombinant A3G; conditions: purified proteins, 50 μM in 1% DMSO
[4] = tested on: A3G, Vif, p24, HSP90 in HIV-1LAI-infected H9 and MT4 cells; test: Protein analysis (immunoblot) of HIV-1 infected H9 and MT4 cells; type: cell-based; conditions: for HIV-1 p24 levels: 72 h
Protocol: Non-permissive (H9) and permissive (MT4) cells were treated with 1% DMSO, IMA82, or 17-DMAG overnight and then infected with HIV-1LAI for 5 h. Cells were washed three times with PBS and cultured in medium for 72 h in the presence of the same concentrations of DMSO, IMA82, or 17-DMAG. Total cell lysates were prepared with M-PER buffer containing 0.5% Triton X-100, 150 mM NaCl, 5 mM EDTA, and protease inhibitor cocktail. Protein concentrations were determined with the DC protein assay kit (Bio-Rad). Immunoblotting was performed as described above.

[5] = tested on: Vif-A3G-HSP90-Cul5-CBF-β E3 ligase complex; test: Immunoprecipitation of IMA82-interacting proteins / E3 ligase complex; type: cell-based
Protocol: Cells were washed twice with PBS and lysed in IP lysis buffer (Thermo) or in a buffer composed of 50 mM Tris-HCl (pH 7.2), 150 mM NaCl, 1% NP-40, 10% glycerol, and protease inhibitor cocktail. Cell lysates ([…]) were incubated with 5 μl of rat anti-HA (Roche), rabbit anti-GFP (Cell Signaling), mouse anti-Hsp90 (Millipore), or rabbit anti-Cul5 (Sigma) plus 30 μl of protein A or G DYNABEADS® (Invitrogen) and rotated at RT for 2 h. The beads were washed three times with PBS containing 0.05% Tween 20. Each lysate was immunoprecipitated in triplicate and the beads were combined. Immune complexes were eluted by boiling in 5×SDS sample buffer. The proteins were separated by SDS-PAGE and analyzed by immunoblotting with antibodies to HA (A3G), GFP (Vif), Hsp90, Cul5, and CBF-β, as described above.

[6] = tested on: A3G and Vif levels in HSP90 or Cul5 knockdown cells
[7] = tested on: HA-tagged A3G and GFP-tagged Vif or ΔVif in 293FT cells; test: Immunoblot of A3G and Vif levels in transfected 293FT cells; conditions: 16 h
[8] = tested on: A3G and Vif levels in HSP90 or Cul5 knockdown cells; test: Knockdown of Hsp90 and Cul5 followed by IMA82 treatment, immunoblot
[9] = tested on: wild-type HIV-1 (HIV-1LAI) in MT-4 cells (permissive); test: Antiviral activity assay: wild-type HIV-1 in permissive MT4 cells, reverse transcriptase activity in culture supernatants; type: cell-based; conditions: wild-type HIV-1, permissive MT4 cells, read-out: Antiviral activity (IC50 μM) MT4 cells
[10] = tested on: APOBEC3G, Vif and cellular Hsp90 substrates (AKT, HER2); test: Western blot of viral and cellular proteins in 293T cells co-transfected with HIV-1 (pLAI2) and HA-tagged APOBEC3G; type: cell-based; conditions: 50 μM, 24 h
Protocol: FIG. 13. […] 293T cells were co-transfected with HIV-1 (pLAI2) and HA-tagged APOBEC3G vectors and cultured for 24 h in the presence (+) or absence (−) of 50 μM RN-18. Cell lysates were collected and used for Western blot analysis with antibodies against the viral and cellular proteins indicated. Levels of cellular GAPDH were used as a loading control.
Both RN-18 and 17-AAG interact with HSP90 in Cul5 mediated E3 ligase complex. […] Cell lysates were prepared and various viral and cellular protein levels were analyzed by immunoblotting (FIG. 13). Levels of cellular GAPDH were used as loading controls.

[11] = tested on: wild-type HIV-1 (HIV-1LAI) in H9 cells (non-permissive); conditions: earlier finding on RN-18; cited from earlier work
[12] = tested on: wild-type HIV-1 (HIV-1LAI) in MT-4 cells (permissive); conditions: 100 μM; cited from earlier work
HIV-1 in CEM cells = conditions: CEM cells (non-permissive); cited from earlier work

## COc1cc(C(=O)NCCOCCOCCOCCNC(=O)CCCCC2SCC3NC(=O)NC32)ccc1NC(=O)c1ccc(Sc2ccc([N+](=O)[O-])cc2)cc1Cl (centres unmarked) [IMA82, 2-chloro-N-(2-methoxy-4-((13-oxo-17-(2-oxohexahydro-1H-thieno[3,4-d]imidazol-4-yl)-3,6,9-trioxa-12-azaheptadecyl)carbamoyl)phenyl)-4-((4-nitrophenyl)thio)benzamide]
[1]; H9 cells, HIV-1LAI, up to 50 μM, 15 days
  viral replication (reverse transcriptase activity in supernatants): dose-dependently inhibited viral replication
HSP90; transfected 293FT cells, streptavidin affinity purification
  co-purification of HSP90 (90 kDa protein) with the compound: HSP90 is targeted; also recorded: purified a specific 90 kDa protein; also recorded: co-purified with IMA82; also recorded: specifically interacts with HSP90
[2]
  A3G ubiquitination: not observed; also recorded: reduced
  Vif ubiquitination: ubiquitinated; also recorded: increased
[3]
  A3G binding to GST-HSP90: block APOBEC3G association; also recorded: inhibited A3G binding to GST-HSP90
[4]; HIV-1-infected H9 cells
  A3G levels: restored A3G levels
  Vif levels: decreased Vif levels
[4]; HIV-1LAI-infected H9 cells
  HIV-1 p24 levels: reduced
[4]; HIV-1LAI-infected MT4 cells
  HIV-1 p24 levels: not MT4 cells
[5]; 293FT cells transfected with FLAG-HSP90 and HA-A3G, 16 h
  HSP90-A3G interaction, FLAG-HSP90 affinity purification: inhibited interactions of HSP90 and A3G
[5]; 293FT-A3G-Vif and 293FT-A3G-ΔVif cells, 10 μM
  A3G association with the immunoprecipitated E3 ligase complexes: prevents APOBEC3G association; also recorded: not present
[6]
  A3G or Vif levels: no effect
[7]; 293FT cells co-expressing HA-A3G and Vif or ΔVif
  A3G expression: dose-dependently restored A3G expression; also recorded: enhances APOBEC3G expression
[7]; 293FT cells co-expressing HA-A3G and Vif
  Vif expression / degradation: induces Cul5-mediated degradation of Vif; also recorded: enhanced Vif degradation; also recorded: reduces Vif expression
[7]; transfected 293FT cells
  CBF-β levels: no effect on levels of CBF-β
  HSP90 expression: did not significantly affect expression of HSP90 protein
[8]; Cul5-depleted 293FT-A3G-Vif cells
  A3G or Vif levels: no further effect
[8]; control siRNA (siNT) 293FT-A3G-Vif cells
  A3G levels: rescue of A3G levels

## COc1ccccc1NC(=O)c1ccccc1Sc1ccc([N+](=O)[O-])cc1 [RN-18, N-(2-methoxyphenyl)-2-((4-nitrophenyl)thio)benzamide]
[1]; HSP90 knockdown H9 cells, 15 days
  viral replication (reverse transcriptase activity): no effect
[1]; Human immunodeficiency virus 1, H9, read-out: Antiviral activity (IC50 μM) H9 cells, Table 1, wild-type HIV-1, non-permissive H9 cells
  IC50: 6 µM
[1]; Human immunodeficiency virus 1, H9, read-out: Antiviral activity (IC50 μM) H9 cells, Table 3, wild-type HIV-1, non-permissive H9 cells
  IC50: 6 µM
[1]; Human immunodeficiency virus 1, H9, read-out: IC50, anti-HIV-1 activity, non-permissive H9 cells
  IC50: 6 µM
[1]; shNT control H9 cells, 15 days
  viral replication (reverse transcriptase activity): inhibited viral replication
[9]; Human immunodeficiency virus 1, MT4, Table 1
  IC50: > 50 µM
[9]; Human immunodeficiency virus 1, MT4, Table 3
  IC50: > 50 µM
HSP90; competitive binding, 0-30 μM competitor, 293FT cells
  inhibition of IMA82 (25 μM) binding to FLAG-tagged HSP90: dose-dependently inhibited
[10]
  levels of cellular Hsp90 substrates (AKT and HER2): no effect on AKT and HER2 levels; also recorded: does not affect the levels of cellular Hsp90 substrates
[10]; HIV-1 (pLAI2) and HA-A3G
  A3G level: restored A3G; also recorded: specifically restores APOBEC3G
  Vif level: enhanced degradation of Vif
[11]
  IC50: 6 µM
[12]
  activity in MT4 cell line: does not show any activity; also recorded: does not inhibit viral infectivity
HIV-1 in CEM cells
  IC50: 4.5 µM
